Legend:
[1] = molecular target: hNav1.5 (Homo sapiens, UniProt Q14524); test: cell-based; settings: Table 12; ratio of PX tonic IC50 values
[2] = molecular target: hNav1.4 (Homo sapiens, UniProt P35499); test: cell-based; format: cell-based; settings: Table 12; ratio of PX tonic IC50 values
Chain of hNav1.4 (P35499 whole entry): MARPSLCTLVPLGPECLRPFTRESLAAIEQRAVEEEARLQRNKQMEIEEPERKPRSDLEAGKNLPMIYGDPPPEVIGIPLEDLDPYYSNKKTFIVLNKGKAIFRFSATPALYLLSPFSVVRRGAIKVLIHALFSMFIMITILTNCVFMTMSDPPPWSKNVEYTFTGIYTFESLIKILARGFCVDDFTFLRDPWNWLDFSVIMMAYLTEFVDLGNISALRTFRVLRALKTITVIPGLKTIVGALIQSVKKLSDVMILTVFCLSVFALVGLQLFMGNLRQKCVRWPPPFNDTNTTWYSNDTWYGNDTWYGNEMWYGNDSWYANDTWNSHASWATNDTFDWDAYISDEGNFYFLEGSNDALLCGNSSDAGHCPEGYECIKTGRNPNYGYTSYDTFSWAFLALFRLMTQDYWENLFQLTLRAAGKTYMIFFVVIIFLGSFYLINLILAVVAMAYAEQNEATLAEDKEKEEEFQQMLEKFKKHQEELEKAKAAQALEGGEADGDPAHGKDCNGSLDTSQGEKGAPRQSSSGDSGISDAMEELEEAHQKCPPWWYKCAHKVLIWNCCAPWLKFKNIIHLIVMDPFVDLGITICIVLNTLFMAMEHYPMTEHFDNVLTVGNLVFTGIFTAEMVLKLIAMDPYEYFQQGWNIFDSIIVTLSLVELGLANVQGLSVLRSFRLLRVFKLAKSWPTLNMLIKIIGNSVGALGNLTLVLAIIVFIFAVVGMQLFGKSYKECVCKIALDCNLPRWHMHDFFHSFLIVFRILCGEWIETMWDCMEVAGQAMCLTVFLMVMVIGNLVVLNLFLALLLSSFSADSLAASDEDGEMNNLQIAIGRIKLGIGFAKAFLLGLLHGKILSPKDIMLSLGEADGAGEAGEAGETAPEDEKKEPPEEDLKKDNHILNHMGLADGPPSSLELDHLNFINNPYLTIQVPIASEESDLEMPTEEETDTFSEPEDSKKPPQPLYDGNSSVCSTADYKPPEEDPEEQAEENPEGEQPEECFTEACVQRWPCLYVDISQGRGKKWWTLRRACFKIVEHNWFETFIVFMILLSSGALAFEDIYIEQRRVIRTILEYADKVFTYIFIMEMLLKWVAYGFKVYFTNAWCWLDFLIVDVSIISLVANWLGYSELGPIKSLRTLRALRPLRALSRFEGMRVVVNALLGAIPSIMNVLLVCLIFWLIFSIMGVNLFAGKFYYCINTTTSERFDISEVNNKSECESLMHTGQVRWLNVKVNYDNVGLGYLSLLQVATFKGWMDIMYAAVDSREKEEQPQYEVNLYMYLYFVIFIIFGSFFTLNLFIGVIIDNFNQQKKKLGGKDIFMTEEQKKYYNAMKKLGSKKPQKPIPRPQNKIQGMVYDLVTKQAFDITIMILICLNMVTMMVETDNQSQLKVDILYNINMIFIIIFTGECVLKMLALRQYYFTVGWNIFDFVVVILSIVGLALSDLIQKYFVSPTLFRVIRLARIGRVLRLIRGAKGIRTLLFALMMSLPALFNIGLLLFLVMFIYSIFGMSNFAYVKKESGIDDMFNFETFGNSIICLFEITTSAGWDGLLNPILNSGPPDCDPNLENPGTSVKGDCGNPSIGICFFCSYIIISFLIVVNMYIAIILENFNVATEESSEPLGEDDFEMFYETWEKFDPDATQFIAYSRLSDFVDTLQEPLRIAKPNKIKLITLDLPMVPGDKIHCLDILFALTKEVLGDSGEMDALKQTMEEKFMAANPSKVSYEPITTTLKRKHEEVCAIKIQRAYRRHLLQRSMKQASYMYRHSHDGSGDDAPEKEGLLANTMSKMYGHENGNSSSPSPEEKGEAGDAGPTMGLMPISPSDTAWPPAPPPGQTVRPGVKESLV

Chain of hNav1.5 (Q14524 whole entry): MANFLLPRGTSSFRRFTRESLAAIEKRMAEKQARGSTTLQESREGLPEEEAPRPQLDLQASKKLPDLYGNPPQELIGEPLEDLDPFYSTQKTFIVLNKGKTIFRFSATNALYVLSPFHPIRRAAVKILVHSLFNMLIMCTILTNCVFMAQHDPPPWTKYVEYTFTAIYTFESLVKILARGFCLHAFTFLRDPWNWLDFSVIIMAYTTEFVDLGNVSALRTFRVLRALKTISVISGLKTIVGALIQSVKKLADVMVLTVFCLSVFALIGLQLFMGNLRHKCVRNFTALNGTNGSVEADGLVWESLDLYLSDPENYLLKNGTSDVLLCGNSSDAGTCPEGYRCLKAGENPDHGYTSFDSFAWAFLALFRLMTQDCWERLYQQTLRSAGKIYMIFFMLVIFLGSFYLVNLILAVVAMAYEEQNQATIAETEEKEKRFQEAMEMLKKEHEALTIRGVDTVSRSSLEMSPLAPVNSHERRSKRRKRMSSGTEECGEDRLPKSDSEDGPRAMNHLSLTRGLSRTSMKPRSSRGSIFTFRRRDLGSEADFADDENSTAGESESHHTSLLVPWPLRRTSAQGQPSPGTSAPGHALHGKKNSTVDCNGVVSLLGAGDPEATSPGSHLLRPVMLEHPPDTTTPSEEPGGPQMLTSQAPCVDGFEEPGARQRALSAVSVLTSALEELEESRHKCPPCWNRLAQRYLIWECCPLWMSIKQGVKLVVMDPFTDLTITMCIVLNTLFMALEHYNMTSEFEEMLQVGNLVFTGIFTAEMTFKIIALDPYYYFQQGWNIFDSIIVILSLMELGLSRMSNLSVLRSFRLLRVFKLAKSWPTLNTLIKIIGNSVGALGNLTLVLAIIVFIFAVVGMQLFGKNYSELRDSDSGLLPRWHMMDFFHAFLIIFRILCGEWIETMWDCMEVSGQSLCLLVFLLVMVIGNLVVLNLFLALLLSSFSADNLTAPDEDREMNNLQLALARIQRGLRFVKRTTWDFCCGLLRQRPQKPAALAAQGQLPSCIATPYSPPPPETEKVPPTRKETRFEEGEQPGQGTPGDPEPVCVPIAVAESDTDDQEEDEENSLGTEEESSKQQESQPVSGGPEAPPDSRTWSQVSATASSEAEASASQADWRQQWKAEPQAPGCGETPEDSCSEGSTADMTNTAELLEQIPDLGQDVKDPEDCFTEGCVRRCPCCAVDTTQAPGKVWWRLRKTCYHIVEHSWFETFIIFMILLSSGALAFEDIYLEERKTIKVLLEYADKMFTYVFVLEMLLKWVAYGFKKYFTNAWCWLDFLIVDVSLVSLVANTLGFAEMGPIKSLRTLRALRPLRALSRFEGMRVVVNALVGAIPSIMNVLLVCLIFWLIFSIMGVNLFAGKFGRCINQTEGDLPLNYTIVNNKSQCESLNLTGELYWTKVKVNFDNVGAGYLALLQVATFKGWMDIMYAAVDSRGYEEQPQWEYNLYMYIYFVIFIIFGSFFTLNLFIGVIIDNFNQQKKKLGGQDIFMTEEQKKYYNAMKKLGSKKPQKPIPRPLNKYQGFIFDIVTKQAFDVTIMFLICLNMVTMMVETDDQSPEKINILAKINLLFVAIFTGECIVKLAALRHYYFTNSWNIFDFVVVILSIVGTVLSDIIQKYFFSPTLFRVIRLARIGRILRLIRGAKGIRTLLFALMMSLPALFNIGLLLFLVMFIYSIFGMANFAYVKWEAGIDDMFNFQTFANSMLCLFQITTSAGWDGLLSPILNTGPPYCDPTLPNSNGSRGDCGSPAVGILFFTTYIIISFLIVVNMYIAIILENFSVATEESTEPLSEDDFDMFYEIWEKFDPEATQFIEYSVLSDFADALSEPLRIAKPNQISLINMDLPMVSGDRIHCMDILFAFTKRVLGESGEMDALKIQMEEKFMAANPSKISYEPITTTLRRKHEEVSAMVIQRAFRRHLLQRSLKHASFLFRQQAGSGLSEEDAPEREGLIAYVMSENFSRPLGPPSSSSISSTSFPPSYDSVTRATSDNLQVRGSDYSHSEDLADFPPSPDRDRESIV

Row | Structure (SMILES) | Nav1.5/Nav1.7 [1] | Nav1.4/Nav1.7 [2]
1 | C#CC[C@H](N)C(=O)NCCOCCOCCOCCOCCC(=O)NCCCC[C@@H]1NC(=O)[C@@H]2CSSC[C@H](NC(=O)[C@@H](N)Cc3ccc(O)cc3)C(=O)N[C@@H](CCC(N)=O)C(=O)N[C@@H](CCCCN)C(=O)N[C@@H](Cc3c[nH]c4ccccc34)C(=O)N[C@@H](CCCC)C(=O)N[C@@H](Cc3c[nH]c4ccccc34)C(=O)N[C@@H]([C@@H](C)O)C(=O)N[C@H]3CSSC[C@H](NC(=O)[C@H](CCC(=O)O)NC(=O)[C@H](CC(C)C)NC(=O)CNC1=O)C(=O)N[C@@H](CCCCN)C(=O)N[C@@H](CC(C)C)C(=O)N[C@@H](Cc1c[nH]c4ccccc14)C(=O)N[C@H](C(=O)N[C@@H](CCCNC(=N)N)C(=O)N[C@@H](CCCCN)C(=O)N[C@H](C(=O)N[C@@H](Cc1c[nH]c4ccccc14)C(N)=O)[C@@H](C)CC)CSSC[C@H](NC(=O)[C@H](C)NC(=O)[C@H](CCCNC(=N)N)NC(=O)[C@H](CCCCN)NC(=O)[C@H](CO)NC(=O)[C@H](CC(=O)O)NC3=O)C(=O)N2 [compound 293] | 1 | 1
2 | C#CC[C@H](N)C(=O)N[C@@H](Cc1ccc(O)cc1)C(=O)N[C@H]1CSSC[C@@H]2NC(=O)[C@@H]3CSSC[C@@H](C(=O)N[C@@H](CCCNC(=N)N)C(=O)N[C@@H](CCCCN)C(=O)N[C@H](C(=O)N[C@H](C(N)=O)[C@@H](C)CC)[C@@H](C)CC)NC(=O)[C@H](Cc4c[nH]c5ccccc45)NC(=O)[C@H](CC(C)C)NC(=O)[C@H](CCCCN)NC(=O)[C@H](CSSC[C@H](NC(=O)[C@H]([C@@H](C)O)NC(=O)[C@H](Cc4c[nH]c5ccccc45)NC(=O)[C@H](CCCC)NC(=O)[C@H](Cc4c[nH]c5ccccc45)NC(=O)[C@H](CCCCN)NC(=O)[C@H](CCC(N)=O)NC1=O)C(=O)N[C@@H](CC(=O)O)C(=O)N[C@@H](CO)C(=O)N[C@@H](CCCCN)C(=O)N[C@@H](CCCNC(=N)N)C(=O)N[C@@H](C)C(=O)N3)NC(=O)[C@H](CCC(=O)O)NC(=O)[C@H](CC(C)C)NC(=O)CNC(=O)[C@H](CCC(=O)O)NC2=O [compound 297] | 642 | 431
3 | C#CC[C@H](N)C(=O)N[C@@H](Cc1ccc(O)cc1)C(=O)N[C@H]1CSSC[C@@H]2NC(=O)[C@@H]3CSSC[C@@H](C(=O)N[C@@H](CCCNC(=N)N)C(=O)N[C@@H](CCCCN)C(=O)N[C@H](C(=O)N[C@@H](Cc4c[nH]c5ccccc45)C(N)=O)[C@@H](C)CC)NC(=O)[C@H](Cc4c[nH]c5ccccc45)NC(=O)[C@H](CC(C)C)NC(=O)[C@H](CCCCN)NC(=O)[C@H](CSSC[C@H](NC(=O)[C@H]([C@@H](C)O)NC(=O)[C@H](Cc4c[nH]c5ccccc45)NC(=O)[C@H](Cc4ccccc4)NC(=O)[C@H](Cc4c[nH]c5ccccc45)NC(=O)[C@H](CCCCN)NC(=O)[C@H](CCC(N)=O)NC1=O)C(=O)N[C@@H](CC(=O)O)C(=O)N[C@@H](CO)C(=O)N[C@@H](CCCCN)C(=O)N[C@@H](CCCNC(=N)N)C(=O)N[C@@H](C)C(=O)N3)NC(=O)[C@H](CCC(=O)O)NC(=O)[C@H](CC(C)C)NC(=O)CNC(=O)[C@H](CCC(=O)O)NC2=O [compound 298] | 52 | 44
4 | C#CC[C@H](N)C(=O)N[C@@H](Cc1ccc(O)cc1)C(=O)N[C@H]1CSSC[C@@H]2NC(=O)[C@@H]3CSSC[C@@H](C(=O)N[C@@H](CCCNC(=N)N)C(=O)N[C@@H](CCCCN)C(=O)N[C@H](C(=O)N[C@@H](Cc4c[nH]c5ccccc45)C(N)=O)[C@@H](C)CC)NC(=O)[C@H](Cc4c[nH]c5ccccc45)NC(=O)[C@H](CC(C)C)NC(=O)[C@H](CCCCN)NC(=O)[C@H](CSSC[C@H](NC(=O)[C@H]([C@@H](C)O)NC(=O)[C@H](Cc4c[nH]c5ccccc45)NC(=O)[C@H](CC(C)C)NC(=O)[C@H](Cc4c[nH]c5ccccc45)NC(=O)[C@H](CCCCN)NC(=O)[C@H](CCC(N)=O)NC1=O)C(=O)N[C@@H](CC(=O)O)C(=O)N[C@@H](CO)C(=O)N[C@@H](CCCCN)C(=O)N[C@@H](CCCNC(=N)N)C(=O)N[C@@H](C)C(=O)N3)NC(=O)[C@H](CCC(=O)O)NC(=O)[C@H](CC(C)C)NC(=O)CNC(=O)[C@H](CCC(=O)O)NC2=O [compound 299] | 2332 | 2069
5 | C#CC[C@H](N)C(=O)N[C@@H](Cc1ccc(O)cc1)C(=O)N[C@H]1CSSC[C@@H]2NC(=O)[C@@H]3CSSC[C@@H](C(=O)N[C@@H](CCCNC(=N)N)C(=O)N[C@@H](CCCCN)C(=O)N[C@H](C(=O)N[C@@H](Cc4c[nH]c5ccccc45)C(N)=O)[C@@H](C)CC)NC(=O)[C@H](Cc4c[nH]c5ccccc45)NC(=O)[C@H](CC(C)C)NC(=O)[C@H](CCCCN)NC(=O)[C@H](CSSC[C@H](NC(=O)[C@H]([C@@H](C)O)NC(=O)[C@H](Cc4c[nH]c5ccccc45)NC(=O)[C@H](CCC)NC(=O)[C@H](Cc4c[nH]c5ccccc45)NC(=O)[C@H](CCCCN)NC(=O)[C@H](CCC(N)=O)NC1=O)C(=O)N[C@@H](CC(=O)O)C(=O)N[C@@H](CO)C(=O)N[C@@H](CCCCN)C(=O)N[C@@H](CCCNC(=N)N)C(=O)N[C@@H](C)C(=O)N3)NC(=O)[C@H](CCC(=O)O)NC(=O)[C@H](CC(C)C)NC(=O)CNC(=O)[C@H](CCC(=O)O)NC2=O [compound 300] | 6483 | 1183
6 | CCCC[C@@H]1NC(=O)[C@H](Cc2c[nH]c3ccccc23)NC(=O)[C@H](CCCCN)NC(=O)[C@H](CCC(N)=O)NC(=O)[C@@H](NC(=O)[C@@H](N)CCCCN=[N+]=[N-])CSSC[C@@H]2NC(=O)[C@@H]3CSSC[C@@H](C(=O)N[C@@H](CCCNC(=N)N)C(=O)N[C@@H](CCCCN)C(=O)N[C@H](C(=O)N[C@@H](Cc4c[nH]c5ccccc45)C(N)=O)[C@@H](C)CC)NC(=O)[C@H](Cc4c[nH]c5ccccc45)NC(=O)[C@H](CC(C)C)NC(=O)[C@H](CCCCN)NC(=O)[C@H](CSSC[C@H](NC(=O)[C@H]([C@@H](C)O)NC(=O)[C@H](Cc4c[nH]c5ccccc45)NC1=O)C(=O)N[C@@H](CC(=O)O)C(=O)N[C@@H](CO)C(=O)N[C@@H](CCCCN)C(=O)N[C@@H](CCCNC(=N)N)C(=O)N[C@@H](C)C(=O)N3)NC(=O)[C@H](CCC(=O)O)NC(=O)[C@H](CC(C)C)NC(=O)CNC(=O)[C@H](CCC(=O)O)NC2=O [compound 304] | 662 | 449
7 | CCCC[C@@H]1NC(=O)[C@H](Cc2c[nH]c3ccccc23)NC(=O)[C@H](CCCCN)NC(=O)[C@H](CCC(N)=O)NC(=O)[C@@H](NC(=O)[C@@H](N)Cc2ccc(O)cc2)CSSC[C@@H]2NC(=O)[C@@H]3CSSC[C@@H](C(=O)N[C@@H](CCCNC(=N)N)C(=O)N[C@@H](CCCCN)C(=O)N[C@H](C(=O)N[C@@H](Cc4c[nH]c5ccccc45)C(N)=O)[C@@H](C)CC)NC(=O)[C@H](Cc4c[nH]c5ccccc45)NC(=O)[C@H](CC(C)C)NC(=O)[C@H](CCCCN)NC(=O)[C@H](CSSC[C@H](NC(=O)[C@H]([C@@H](C)O)NC(=O)[C@H](Cc4c[nH]c5ccccc45)NC1=O)C(=O)N[C@@H](CC(=O)O)C(=O)N[C@@H](CCCCN=[N+]=[N-])C(=O)N[C@@H](CCCCN)C(=O)N[C@@H](CCCNC(=N)N)C(=O)N[C@@H](C)C(=O)N3)NC(=O)[C@H](CCC(=O)O)NC(=O)[C@H](CC(C)C)NC(=O)CNC(=O)[C@H](CCC(=O)O)NC2=O [compound 305] | 0 | 0
8 | CCCC[C@@H]1NC(=O)[C@H](Cc2c[nH]c3ccccc23)NC(=O)[C@H](CCCCN)NC(=O)[C@H](CCC(N)=O)NC(=O)[C@@H](NC(=O)[C@@H](N)Cc2ccc(O)cc2)CSSC[C@@H]2NC(=O)[C@@H]3CSSC[C@@H](C(=O)N[C@@H](CCCNC(=N)N)C(=O)N[C@@H](CCCCN)C(=O)N[C@H](C(=O)N[C@@H](Cc4c[nH]c5ccccc45)C(N)=O)[C@@H](C)CC)NC(=O)[C@H](Cc4c[nH]c5ccccc45)NC(=O)[C@H](CC(C)C)NC(=O)[C@H](CCCCN)NC(=O)[C@H](CSSC[C@H](NC(=O)[C@H]([C@@H](C)O)NC(=O)[C@H](Cc4c[nH]c5ccccc45)NC1=O)C(=O)N[C@@H](CC(=O)O)C(=O)N[C@@H](CO)C(=O)N[C@@H](CCCCN)C(=O)N[C@@H](CCCNC(=N)N)C(=O)N[C@@H](CCCCN=[N+]=[N-])C(=O)N3)NC(=O)[C@H](CCC(=O)O)NC(=O)[C@H](CC(C)C)NC(=O)CNC(=O)[C@H](CCC(=O)O)NC2=O [compound 306] | 1712 | 550
9 | CCCC[C@@H]1NC(=O)[C@H](Cc2c[nH]c3ccccc23)NC(=O)[C@H](CCCCN)NC(=O)[C@H](CCC(N)=O)NC(=O)[C@@H](NC(=O)[C@@H](N)Cc2ccc(O)cc2)CSSC[C@@H]2NC(=O)[C@@H]3CSSC[C@@H](C(=O)N[C@@H](CCCNC(=N)N)C(=O)N[C@@H](CCCCN)C(=O)N[C@H](C(=O)N[C@@H](Cc4c[nH]c5ccccc45)C(N)=O)[C@@H](C)CC)NC(=O)[C@H](Cc4c[nH]c5ccccc45)NC(=O)[C@H](CC(C)C)NC(=O)[C@H](CCCCN)NC(=O)[C@H](CSSC[C@H](NC(=O)[C@H]([C@@H](C)O)NC(=O)[C@H](Cc4c[nH]c5ccccc45)NC1=O)C(=O)N[C@@H](CC(=O)O)C(=O)N[C@@H](CO)C(=O)N[C@@H](CCCCN)C(=O)N[C@@H](CCCNC(=N)N)C(=O)N[C@@H](C)C(=O)N3)NC(=O)[C@H](CCC(=O)O)NC(=O)[C@H](CC(C)C)NC(=O)CNC(=O)[C@H](CCCCN=[N+]=[N-])NC2=O [compound 307] | 83 | 40
10 | CCCC[C@@H]1NC(=O)[C@H](Cc2c[nH]c3ccccc23)NC(=O)[C@H](CCCCN)NC(=O)[C@H](CCC(N)=O)NC(=O)[C@@H](NC(=O)[C@H](Cc2ccc(O)cc2)NC(=O)[C@@H](N)CCN=[N+]=[N-])CSSC[C@@H]2NC(=O)[C@@H]3CSSC[C@@H](C(=O)N[C@@H](CCCNC(=N)N)C(=O)N[C@@H](CCCCN)C(=O)N[C@H](C(=O)N[C@@H](Cc4c[nH]c5ccccc45)C(N)=O)[C@@H](C)CC)NC(=O)[C@H](Cc4c[nH]c5ccccc45)NC(=O)[C@H](CC(C)C)NC(=O)[C@H](CCCCN)NC(=O)[C@H](CSSC[C@H](NC(=O)[C@H]([C@@H](C)O)NC(=O)[C@H](Cc4c[nH]c5ccccc45)NC1=O)C(=O)N[C@@H](CC(=O)O)C(=O)N[C@@H](CO)C(=O)N[C@@H](CCCCN)C(=O)N[C@@H](CCCNC(=N)N)C(=O)N[C@@H](C)C(=O)N3)NC(=O)[C@H](CCC(=O)O)NC(=O)[C@H](CC(C)C)NC(=O)CNC(=O)[C@H](CCC(=O)O)NC2=O [compound 308] | 3351 | 1068

— patent US10344060B2 (priority 2013, dated 2019)
